The results in this text go back to ChEMBL document CHEMBL2073853, “Cholesterol interaction with the daunorubicin binding site of P-glycoprotein” (Biochem Biophys Res Commun, 2000).

In general, IC50 refers to the concentration that inhibits the measured activity by half.

This test concerns the target ATP-dependent translocase ABCB1 (Homo sapiens, UniProt P08183). The test is described as follows: TP_TRANSPORTER: increase in Daunorubicn intracellular accumulation (Daunorubicin: ? uM) in NIH-G185 cells. It counts as functional, cell-based.

Chain of ATP-dependent translocase ABCB1 (P08183 whole entry): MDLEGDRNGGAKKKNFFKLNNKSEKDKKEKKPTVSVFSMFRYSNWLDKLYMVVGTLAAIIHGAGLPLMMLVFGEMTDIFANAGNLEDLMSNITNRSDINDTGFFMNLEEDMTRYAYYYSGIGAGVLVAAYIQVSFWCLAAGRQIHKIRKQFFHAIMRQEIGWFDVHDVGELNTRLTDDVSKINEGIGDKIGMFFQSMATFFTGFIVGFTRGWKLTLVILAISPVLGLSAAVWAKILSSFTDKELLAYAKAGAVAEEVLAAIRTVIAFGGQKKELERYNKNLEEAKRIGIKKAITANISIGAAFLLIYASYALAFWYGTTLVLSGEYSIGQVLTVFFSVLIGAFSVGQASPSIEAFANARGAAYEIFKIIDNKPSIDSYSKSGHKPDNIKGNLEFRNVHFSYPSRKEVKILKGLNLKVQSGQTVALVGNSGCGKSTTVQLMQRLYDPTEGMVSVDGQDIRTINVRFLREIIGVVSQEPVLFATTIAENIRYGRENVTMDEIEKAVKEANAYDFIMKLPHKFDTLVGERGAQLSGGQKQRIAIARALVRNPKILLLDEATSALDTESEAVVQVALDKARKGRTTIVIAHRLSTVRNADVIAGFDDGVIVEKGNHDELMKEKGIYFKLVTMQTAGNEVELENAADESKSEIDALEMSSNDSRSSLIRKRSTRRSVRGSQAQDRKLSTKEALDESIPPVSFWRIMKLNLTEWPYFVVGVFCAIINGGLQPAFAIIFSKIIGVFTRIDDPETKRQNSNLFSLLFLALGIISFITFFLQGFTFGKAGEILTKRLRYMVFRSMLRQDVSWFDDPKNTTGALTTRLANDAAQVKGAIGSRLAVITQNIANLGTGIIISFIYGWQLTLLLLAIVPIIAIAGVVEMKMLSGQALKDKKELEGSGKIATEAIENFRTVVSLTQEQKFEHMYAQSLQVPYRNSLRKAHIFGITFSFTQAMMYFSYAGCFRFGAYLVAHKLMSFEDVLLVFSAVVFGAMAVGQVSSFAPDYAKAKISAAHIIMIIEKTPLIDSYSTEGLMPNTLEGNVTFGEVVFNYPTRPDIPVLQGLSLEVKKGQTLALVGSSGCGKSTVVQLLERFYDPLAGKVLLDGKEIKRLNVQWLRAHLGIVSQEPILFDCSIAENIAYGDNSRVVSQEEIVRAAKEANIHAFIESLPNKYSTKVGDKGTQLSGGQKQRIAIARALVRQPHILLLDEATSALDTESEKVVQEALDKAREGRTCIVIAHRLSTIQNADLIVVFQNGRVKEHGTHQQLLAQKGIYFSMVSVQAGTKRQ

`CC(C)CCC[C@@H](C)[C@H]1CC[C@H]2[C@@H]3CC=C4C[C@@H](O)CC[C@]4(C)[C@H]3CC[C@]12C` [CHOLESTEROL] registered a concentration for half-maximal inhibition (IC50) of 8.2 µM.
